In US20050107465A1, “Composition for treating inflammatory bowel disease” (priority 2003, published 2005):
Entries after “also recorded” stand apart in the source; their conditions may differ.

Tested on: MAdCAM-1 expression in murine colon microvessel endothelial cells
Assay: Western blot assay for TNF-α induced MAdCAM-1 expression in murine colon microvessel endothelial cells
Type: cell-based
Details: EC monolayer pre-treated with test agent, then TNF-α 20 ng/ml for 24 hours, western blot densitometry (FIG. 2)
Procedure: A line of murine colon microvessel endothelial cells was developed for use as an in vitro model of colon inflammatory adhesion molecule expression in IBD. Immortomouse mice were used as tissue sources for these studies. Colon segments were sterilely removed and treated with collagenase (0.2%, 45 min) and cultured in d-valine MEM with IFN-g (10 U/ml) with 2% FCS and non-essential amino acids and vitamins. These cells were cultured on gelatin and were maintained at 37 C. for 24 hours prior to exposure to treatment protocols. In treatments, cells cultured on 24 well plates were incubated in either medium, or medium containing antioxidant or antioxidant admixture ± vitamin E TPGS for 24-48 hour prior to the administration of inflammatory cytokine (TNF-α, 20 ng/ml). At 24 hours combined treatments, monolayers were evaluated for MAdCAM-1 by standard western blotting.
EC cells developed as above were cultured in 2% fetal calf serum, with 50 U/ml interferon-gamma, d-valine supplemented MEM, 1% penicillin/streptomycin and 1 % non-essential amino acids using tissue culture were pre-coated with 1 % gelatin. Adhesion molecule expression was measured in these cells by switching cells to medium without interferon, culturing for 48 hours and then pre-treating cells with test agents for 24 hours prior to exposure to TNF-α for an additional 24 hours. MAdCAM-1 expression was measured using standard western blotting procedures described above. One hundred μg of protein was loaded per lane in non-denaturing sample buffer (w/o mercaptoethanol) and electrophoresed, and subsequently transferred to nitrocellulose. After blocking (5% milk, 2 h), blots were incubated in MAdCAM-1 antibody (10 ug/ml) for 12 hours and reacted by enhanced chemiluminescence (ECL). Gels were analyzed by densitometric analysis by scanning x-ray replicas of the exposed blots.
A murine colon microvessel endothelial cell line (EC monolayer) was developed as described above. Cytokine induced MAdCAM-1 expression in these cells was determined via Western Blot assay described above. An initial experiment evaluated the ability of gamma-tocopherol alone or formulated with vitamin E TPGS to block cytokine induction of MAdCAM-1 in this cell line is shown in FIG. 2.

Cc1c(O)cc2c(c1C)O[C@](C)(CCC[C@H](C)CCC[C@H](C)CCCC(C)C)CC2 [gamma-tocopherol]
decrease in MAdCAM-1 expression: at least 50% | effect on cytokine induced MAdCAM-1 expression (in words): significantly decrease

Cc1c(C)c2c(c(C)c1O)CC[C@@](C)(CCC[C@H](C)CCC[C@H](C)CCCC(C)C)O2 [alpha-tocopherol]
effect on cytokine induced MAdCAM-1 expression (in words): relatively minor effect; also recorded: significantly less effective than gamma-tocopherol alone

vitamin E TPGS
effect on cytokine induced MAdCAM-1 expression (in words): relatively small effect; also recorded: only a slight decrease | effect on cytokine induced MAdCAM-1 expression (in words) (listed as vitamin E TGPS): relatively minor effect

COC1=C(OC)C(=O)C(C/C=C(\C)CC/C=C(\C)CC/C=C(\C)CC/C=C(\C)CC/C=C(\C)CC/C=C(\C)CC/C=C(\C)CC/C=C(\C)CC/C=C(\C)CCC=C(C)C)=C(C)C1=O [Coenzyme Q10]
effect on cytokine induced MAdCAM-1 expression (in words): less beneficial than alpha-tocopherol therapy | effect on cytokine induced MAdCAM-1 expression (in words) (listed as coenzyme Q10): relatively minor effect
